The results in this text go back to patent US12370161B2, “Composition for treating atopy or pruritus comprising N-acetyl or N-acyl amino acid” (STEMDR INC., priority 2017, dated 2025).

For this assay, the system named is atopic dermatitis-induced Nc/Nga mouse. The assay is described as follows: SCORAD clinical skin score, DNFB-induced atopic dermatitis in Nc/Nga mouse. As to conditions: for Mouse 1 Erythema: DNFB Nc/Nga (FIG. 8), 0.1% in PBS, 200 μL on back skin daily day 15-21; for Mouse 1 Erythema / Mouse 1 Abrasion / Mouse 1 Dryness / Mouse 1 Edema / Mouse 1 Eschar / Mouse 1 Lichenification / Mouse 2 Abrasion / Mouse 2 Dryness / Mouse 2 Edema / Mouse 2 Erythema / Mouse 2 Eschar / Mouse 2 Lichenification / Mouse 3 Abrasion / Mouse 3 Dryness / Mouse 3 Edema / Mouse 3 Erythema / Mouse 3 Eschar / Mouse 3 Lichenification: graded per Example 4; for Mouse 1 Abrasion / Mouse 1 Dryness / Mouse 1 Edema / Mouse 1 Eschar / Mouse 1 Lichenification / Mouse 1 Sum / Mouse 2 Abrasion / Mouse 2 Dryness / Mouse 2 Edema / Mouse 2 Erythema / Mouse 2 Eschar / Mouse 2 Lichenification / Mouse 2 Sum / Mouse 3 Abrasion / Mouse 3 Dryness / Mouse 3 Edema / Mouse 3 Erythema / Mouse 3 Eschar / Mouse 3 Lichenification / Mouse 3 Sum / Mean (of Sum, SCORAD): DNFB Nc/Nga, 0.1% topical day 15-21; for Mouse 1 Sum / Mouse 2 Sum / Mouse 3 Sum: sum of individual scores; for Mean (of Sum, SCORAD): mean of 3 mice; for dermatitis-treating effect of L-, L/D- and D-form (FIG. 6): Nc/Nga atopic dermatitis model, 0.1%. The assay is classed as in vivo. Also on record: key to Mouse 1 Erythema / Mouse 2 Eschar / Mouse 2 Dryness / Mouse 2 Abrasion / Mouse 1 Edema / Mouse 1 Eschar / Mouse 1 Dryness / Mouse 1 Abrasion / Mouse 2 Erythema / Mouse 2 Edema / Mouse 3 Erythema / Mouse 3 Edema / Mouse 3 Eschar / Mouse 3 Dryness / Mouse 3 Abrasion: 0 = no symptom, 1 = mild, 2 = moderate, 3 = severe; key to Mouse 1 Sum / Mean (of Sum, SCORAD) / Mouse 3 Sum: sum of individual symptom scores, each graded 0-3. The protocol: In order to establish a model more similar to an atopy model than that of the Balb/c mice, atopy was induced in Nc/Nga mouse mice. Specifically, after inducing DNFB sensitization by applying 100 μL of 0.35% 2,4-dinitrofluorobenzene (DNFB) in acetone/olive oil (3:1) on the shaved back skin, dermatitis was induced by applying 100 μL of 0.15% DNFB for 4-20 days, every other day. Control mice were treated with a vehicle of the same volume (FIG. 1B).
After dissolving an N-acetyl or N-acylamino acid in phosphate-buffered saline to 0.1%, 200 μL of the solution was applied on the back skin of the mice every day, from day 22 until day 28 for the Balb/c atopic dermatitis model, and from day 15 until day 21 for the Nc/Nga atopic dermatitis model. When the N-acetyl or N-acylamino acid was treated together with DNFB, they were treated with 12-hour intervals in order to avoid direct reaction between the DNFB and the N-acetyl or N-acylamino acid. A non-treated group and a 2,4-dinitrofluorobenzene (DNFB) group were treated with phosphate-buffered saline of the same volume (FIGS. 1A-1B). As the N-acetylamino acid, products purchased from Sigma-Aldrich (USA), MP scientific (USA), TCI (Tokyo Chemical Industry, Japan), Santacruz (USA), etc. were used without purification.
The degree of skin soothing and the severity of atopic dermatitis were evaluated macroscopically according to the previously established SCORAD (SCORing Atopic Dermatitis) method (Oranje et al., 2007). The degree of symptoms such as edema, erythema, eschar, dryness, abrasion, lichenification, etc. was graded from 0 to 3 (0, no symptom; 1, mild; 2, moderate; 3, severe). The overall dermatitis score was determined from the sum of all individual scores (Table 1). The assessment was performed by an investigator who was blind to the grouping of the mice.
Skin-soothing effect and the severity of dermatitis were evaluated for the acyl derivatives of tryptophan synthesized in Example 9, the acyl derivative of alanine synthesized in Example 10 and N-palmitoylalanine (purchased from Santacruz (USA)) according to the method of Example 4 (Table 2)

`CCCCCCCCCCC(=O)N[C@@H](Cc1c[nH]c2ccccc12)C(=O)O` [N-undecanoyl L-tryptophan, N-undecanoyl-L-tryptophan]: the “Mouse 1 Erythema” value worked out at 1, the “Mouse 1 Abrasion” value was found to be 2, the “Mouse 1 Dryness” value turned out to be 1 and the “Mouse 1 Edema” value was 2. Besides, the “Mouse 1 Eschar” value was found to be 1, the “Mouse 1 Lichenification” value was 2, the “Mouse 1 Sum” value worked out at 9 and the “Mouse 2 Abrasion” value was 2. Also, the “Mouse 2 Dryness” value was found to be 1, the “Mouse 2 Edema” value came to 1, the “Mouse 2 Erythema” value was found to be 2 and the “Mouse 2 Eschar” value came to 2. The “Mouse 2 Lichenification” value is recorded as 2, the “Mouse 2 Sum” value was determined as 10, the “Mouse 3 Abrasion” value is given as 1 and the “Mouse 3 Dryness” value amounted to 1. The “Mouse 3 Edema” value was found to be 2, the “Mouse 3 Erythema” value came out at 1, the “Mouse 3 Eschar” value was found to be 2 and the “Mouse 3 Lichenification” value worked out at 2. For the same compound, the “Mouse 3 Sum” value was determined as 9 and the “Mean (of Sum, SCORAD)” value came out at 9.3.

Consider `CCCCC(=O)N[C@@H](Cc1c[nH]c2ccccc12)C(=O)O` [N-pentanoyl L-tryptophan, N-pentanoyl-L-tryptophan], for which the “Mouse 1 Erythema” value is 2, the “Mouse 1 Abrasion” value is 1, the “Mouse 1 Dryness” value is 2 and the “Mouse 1 Edema” value is listed as 2. In addition, the “Mouse 1 Eschar” value was found to be 2, the “Mouse 1 Lichenification” value was 2, the “Mouse 1 Sum” value is given as 11 and the “Mouse 2 Abrasion” value was 1. Moreover, the “Mouse 2 Dryness” value is reported as 2, the “Mouse 2 Edema” value was 2, the “Mouse 2 Erythema” value came to 2 and the “Mouse 2 Eschar” value is on record as 1. Also, the “Mouse 2 Lichenification” value turned out to be 2, the “Mouse 2 Sum” value is recorded as 10, the “Mouse 3 Abrasion” value came out at 2 and the “Mouse 3 Dryness” value was found to be 1. Further, the “Mouse 3 Edema” value was 2, the “Mouse 3 Erythema” value worked out at 2, the “Mouse 3 Eschar” value came to 2 and the “Mouse 3 Lichenification” value turned out to be 1. Moreover, the “Mouse 3 Sum” value is 10 and the “Mean (of Sum, SCORAD)” value is reported as 10.3.

As to `CC(=O)N[C@@H](Cc1c[nH]c2ccccc12)C(=O)O` [D-form N-acetyltryptophan, N-acetyltryptophan, reference compound], the “dermatitis-treating effect of L-, L/D- and D-form (FIG. 6)” value is “no effect”.

For `CCC(=O)N[C@@H](Cc1c[nH]c2ccccc12)C(=O)O` [N-propionyl L-tryptophan, N-propionyl-L-tryptophan], the “Mouse 1 Erythema” value amounted to 2, the “Mouse 1 Abrasion” value was determined as 2, the “Mouse 1 Dryness” value is recorded as 2 and the “Mouse 1 Edema” value was 2. In addition, the “Mouse 1 Eschar” value is recorded as 2, the “Mouse 1 Lichenification” value was 2, the “Mouse 1 Sum” value is on record as 12 and the “Mouse 2 Abrasion” value was 2. In addition, the “Mouse 2 Dryness” value was 3, the “Mouse 2 Edema” value is reported as 2, the “Mouse 2 Erythema” value was determined as 2 and the “Mouse 2 Eschar” value is 2. The “Mouse 2 Lichenification” value came to 2, the “Mouse 2 Sum” value stood at 13, the “Mouse 3 Abrasion” value was 2 and the “Mouse 3 Dryness” value is reported as 1. The “Mouse 3 Edema” value is 1, the “Mouse 3 Erythema” value worked out at 2, the “Mouse 3 Eschar” value is 2 and the “Mouse 3 Lichenification” value came to 1. Moreover, the “Mouse 3 Sum” value was determined as 9 and the “Mean (of Sum, SCORAD)” value is listed as 11.3.

As for `CCCCCCCC/C=C\CCCCCCCC(=O)N[C@@H](Cc1c[nH]c2ccccc12)C(=O)O` [N-oleoyl-L-tryptophan], the “Mouse 1 Erythema” value was found to be 2, the “Mouse 1 Abrasion” value is on record as 2, the “Mouse 1 Dryness” value was found to be 2 and the “Mouse 1 Edema” value is listed as 1. Moreover, the “Mouse 1 Eschar” value worked out at 2, the “Mouse 1 Lichenification” value amounted to 3, the “Mouse 1 Sum” value came to 12 and the “Mouse 2 Abrasion” value was 2. The “Mouse 2 Dryness” value is given as 2, the “Mouse 2 Edema” value is on record as 1, the “Mouse 2 Erythema” value worked out at 1 and the “Mouse 2 Eschar” value turned out to be 1. For the same compound, the “Mouse 2 Lichenification” value is 3, the “Mouse 2 Sum” value amounted to 10, the “Mouse 3 Abrasion” value stood at 2 and the “Mouse 3 Dryness” value came out at 2. Moreover, the “Mouse 3 Edema” value is given as 1, the “Mouse 3 Erythema” value turned out to be 2, the “Mouse 3 Eschar” value is on record as 1 and the “Mouse 3 Lichenification” value was found to be 2. Also, the “Mouse 3 Sum” value is recorded as 10 and the “Mean (of Sum, SCORAD)” value was determined as 10.7.

As to `CCCC(=O)N[C@@H](Cc1c[nH]c2ccccc12)C(=O)O` [N-butyryl L-tryptophan, N-butyryl-L-tryptophan], the “Mouse 1 Erythema” value is reported as 1, the “Mouse 1 Abrasion” value is given as 1, the “Mouse 1 Dryness” value worked out at 2 and the “Mouse 1 Edema” value is 2. Besides, the “Mouse 1 Eschar” value worked out at 2, the “Mouse 1 Lichenification” value stood at 2, the “Mouse 1 Sum” value came out at 10 and the “Mouse 2 Abrasion” value is on record as 2. The “Mouse 2 Dryness” value is listed as 2, the “Mouse 2 Edema” value amounted to 1, the “Mouse 2 Erythema” value is recorded as 2 and the “Mouse 2 Eschar” value amounted to 1. Moreover, the “Mouse 2 Lichenification” value is given as 2, the “Mouse 2 Sum” value was determined as 10, the “Mouse 3 Abrasion” value came out at 1 and the “Mouse 3 Dryness” value came to 1. Also, the “Mouse 3 Edema” value is on record as 1, the “Mouse 3 Erythema” value was 1, the “Mouse 3 Eschar” value is 1 and the “Mouse 3 Lichenification” value is listed as 2. Further, the “Mouse 3 Sum” value came to 6 and the “Mean (of Sum, SCORAD)” value is given as 8.7.

Consider `CCCCCCCCCCCCCCCC(=O)N[C@@H](C)C(=O)O` [N-palmitoyl L-alanine, N-palmitoyl-L-alanine], for which the “Mouse 1 Erythema” value came out at 1, the “Mouse 1 Abrasion” value is 1, the “Mouse 1 Dryness” value is 1 and the “Mouse 1 Edema” value is on record as 2. For the same compound, the “Mouse 1 Eschar” value was 1, the “Mouse 1 Lichenification” value is on record as 1, the “Mouse 1 Sum” value turned out to be 7 and the “Mouse 2 Abrasion” value was found to be 1. Also, the “Mouse 2 Dryness” value stood at 1, the “Mouse 2 Edema” value was 1, the “Mouse 2 Erythema” value is listed as 2 and the “Mouse 2 Eschar” value turned out to be 1. The “Mouse 2 Lichenification” value is reported as 1, the “Mouse 2 Sum” value was determined as 7, the “Mouse 3 Abrasion” value stood at 2 and the “Mouse 3 Dryness” value turned out to be 2. Besides, the “Mouse 3 Edema” value is 1, the “Mouse 3 Erythema” value was 2, the “Mouse 3 Eschar” value worked out at 1 and the “Mouse 3 Lichenification” value is on record as 1. Further, the “Mouse 3 Sum” value came to 9 and the “Mean (of Sum, SCORAD)” value came to 6.7.

As to `CC(=O)N[C@@H](C)C(=O)O` [D-form N-acetylalanine, N-acetylalanine, reference compound], the “dermatitis-treating effect of L-, L/D- and D-form (FIG. 6)” value was “no effect”.
